Test results published in US20070203183A1, “Diaryl piperidines as CB1 modulators” (Schering Corporation, priority 2006, published 2007).
Like-named read-outs stand apart in the source and are kept apart here.

Target: T1, cannabinoid CB1 (Homo sapiens, UniProt P21554)
T1 construct: purchased
Assay: Competition binding assay for cannabinoid CB1 affinity (3H-CP55,940 displacement, membranes)
Procedure: Method for Evaluating Cannabinoid CB1 and CB2 Affinity
Non-specific binding was defined in the presence of 10 μM CP55,940. For saturation studies, concentrations of ^3H-CP55,940 ranging from 0.1-5 nM were incubated with membranes in the presence and absence of 10 μM CP55,940. Assays were terminated after incubation for 1½ hours by rapid filtration onto 0.3% polyethylenamine treated GF/C filterplates using a BRANDEL cell harvester. The plates were dried and MICROSCINT scintillation cocktail was added, after which the bound radioactivity was quantified using a TOPCOUNT scintillation counter.
The dissociation constant (Kd) of ^3H-CP55,940 at the CB1 and CB2 receptor were determined by plotting specific binding at each concentration of radioligand, and analysis by non-linear regression. For competition studies, the concentration of each drug that inhibited 50 percent of ^3H-CP55,940 binding (IC50) was determined by non-linear regression analysis of the radioligand displacement curves.

[1] = competition with 0.5 nM 3H-CP55,940, Ki by Cheng-Prusoff, approximate values, receptor subtype not given, read-out: Ki values

T1 sequence (P21554 whole entry): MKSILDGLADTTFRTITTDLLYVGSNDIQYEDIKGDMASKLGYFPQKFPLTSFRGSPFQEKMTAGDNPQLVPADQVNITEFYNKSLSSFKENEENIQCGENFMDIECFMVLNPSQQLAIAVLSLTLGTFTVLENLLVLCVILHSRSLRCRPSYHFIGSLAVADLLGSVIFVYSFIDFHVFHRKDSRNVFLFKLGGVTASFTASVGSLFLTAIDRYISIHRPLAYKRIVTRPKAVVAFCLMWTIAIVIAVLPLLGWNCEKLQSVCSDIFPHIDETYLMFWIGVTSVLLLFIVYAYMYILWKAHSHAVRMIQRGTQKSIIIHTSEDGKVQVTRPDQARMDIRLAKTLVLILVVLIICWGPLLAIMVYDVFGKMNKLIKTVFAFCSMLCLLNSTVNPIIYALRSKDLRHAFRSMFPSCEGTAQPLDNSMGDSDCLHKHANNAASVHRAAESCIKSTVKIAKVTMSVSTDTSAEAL

SMILES	Ki [1] [nM]	Ki [nM]
O=S(=O)(NC[C@@H]1CC[C@@H](c2ccc(Cl)cc2Cl)N(c2ccc(Cl)cc2)C1)c1ccccc1 [Example 86]	~9	–
N#Cc1ccc(C(=O)NC[C@@H]2CC[C@@H](c3ccc(Cl)cc3Cl)N(c3ccc(Cl)cc3)C2)cc1 [Example 91]	–	~4
O=S(=O)(NC[C@@H]1CC[C@@H](c2ccc(Cl)cc2Cl)N(c2ccc(Cl)cc2)C1)c1cc(F)ccc1F [Example 112]	~2	–
O=S(=O)(NC[C@@H]1CC[C@@H](c2ccc(Cl)cc2Cl)N(c2ccc(Cl)cc2)C1)c1cccc(Cl)c1 [Example 120]	~2	–
